Experiments:
[1] = biological target: T1, Alpha-1B adrenergic receptor (Rattus norvegicus, UniProt P15823); experiment: DRUGMATRIX: Alpha-1B adrenergic receptor radioligand binding (ligand: prazosin); format: cell membranes, Wistar, Liver, Membrane; conditions: Not Active = under 50% inhibition at 10 µM; for Ki: read-out: Ki
T1 sequence (P15823 whole entry): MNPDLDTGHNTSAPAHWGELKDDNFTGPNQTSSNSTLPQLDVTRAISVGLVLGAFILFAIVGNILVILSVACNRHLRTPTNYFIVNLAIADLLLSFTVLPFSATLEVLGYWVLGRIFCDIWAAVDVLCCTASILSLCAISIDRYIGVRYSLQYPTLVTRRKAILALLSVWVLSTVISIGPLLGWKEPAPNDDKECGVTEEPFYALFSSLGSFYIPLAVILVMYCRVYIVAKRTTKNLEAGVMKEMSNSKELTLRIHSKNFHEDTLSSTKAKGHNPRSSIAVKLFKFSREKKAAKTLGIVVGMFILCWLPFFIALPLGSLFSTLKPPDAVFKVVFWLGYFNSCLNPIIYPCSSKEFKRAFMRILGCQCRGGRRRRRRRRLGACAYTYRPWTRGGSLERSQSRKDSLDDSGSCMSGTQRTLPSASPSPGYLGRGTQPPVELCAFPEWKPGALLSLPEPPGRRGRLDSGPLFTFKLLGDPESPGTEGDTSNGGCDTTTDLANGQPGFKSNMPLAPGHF

[2] = biological target: T2, Alpha-1D adrenergic receptor (Homo sapiens, UniProt P25100); format: cell membranes, HEK293, Membrane; conditions: for Ki: read-out: Ki; as to all read-outs here: in other assays of this panel Not Active means under 50% inhibition at 10 µM
T2 sequence (P25100 whole entry): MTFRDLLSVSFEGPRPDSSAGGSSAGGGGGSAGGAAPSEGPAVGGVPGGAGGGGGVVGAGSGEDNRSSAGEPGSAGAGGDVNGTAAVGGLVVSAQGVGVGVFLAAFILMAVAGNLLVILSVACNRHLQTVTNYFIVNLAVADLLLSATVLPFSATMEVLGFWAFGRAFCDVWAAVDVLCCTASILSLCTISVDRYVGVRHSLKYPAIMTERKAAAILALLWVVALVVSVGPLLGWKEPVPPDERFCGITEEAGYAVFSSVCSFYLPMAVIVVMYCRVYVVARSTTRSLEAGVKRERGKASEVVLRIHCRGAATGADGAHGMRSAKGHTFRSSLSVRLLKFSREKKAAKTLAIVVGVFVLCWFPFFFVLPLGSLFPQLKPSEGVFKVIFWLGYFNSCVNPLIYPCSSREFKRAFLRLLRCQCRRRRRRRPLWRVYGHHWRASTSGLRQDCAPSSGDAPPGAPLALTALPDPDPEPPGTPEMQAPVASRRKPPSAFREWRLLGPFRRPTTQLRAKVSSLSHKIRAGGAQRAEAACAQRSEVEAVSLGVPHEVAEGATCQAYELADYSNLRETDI

[3] = biological target: Sodium-dependent noradrenaline transporter (Homo sapiens, UniProt P23975); experiment: DRUGMATRIX: Norepinephrine Transporter radioligand binding (ligand: [125I] RTI-55); format: cell membranes, MDCK, Membrane; conditions: Not Active = under 50% inhibition at 10 µM
Chain of Sodium-dependent noradrenaline transporter (P23975 whole entry): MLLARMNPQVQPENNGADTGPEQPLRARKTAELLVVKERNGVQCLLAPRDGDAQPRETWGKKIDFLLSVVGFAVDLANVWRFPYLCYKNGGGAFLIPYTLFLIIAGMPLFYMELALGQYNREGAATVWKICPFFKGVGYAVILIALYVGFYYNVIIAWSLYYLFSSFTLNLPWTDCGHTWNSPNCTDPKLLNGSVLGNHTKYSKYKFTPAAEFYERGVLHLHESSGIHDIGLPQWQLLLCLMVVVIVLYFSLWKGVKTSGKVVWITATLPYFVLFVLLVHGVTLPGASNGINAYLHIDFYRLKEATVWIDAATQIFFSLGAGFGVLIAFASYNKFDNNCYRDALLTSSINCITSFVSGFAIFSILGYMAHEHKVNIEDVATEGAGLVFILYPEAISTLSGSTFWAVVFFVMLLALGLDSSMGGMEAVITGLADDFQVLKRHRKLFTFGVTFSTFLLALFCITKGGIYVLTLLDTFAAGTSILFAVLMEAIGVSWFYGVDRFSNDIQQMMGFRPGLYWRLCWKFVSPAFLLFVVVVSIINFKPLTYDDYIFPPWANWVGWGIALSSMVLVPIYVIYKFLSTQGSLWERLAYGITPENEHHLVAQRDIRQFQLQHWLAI

[4] = DRUGMATRIX: Atrial Natriuretic Factor (ANF) radioligand binding (ligand: [125I] ANF (rat)); format: cell membranes, Cavia porcellus, Dunkin-Hartley, Adrenal gland, Membrane; conditions: Not Active = under 50% inhibition at 10 µM
[5] = biological target: C-C chemokine receptor type 2 (Homo sapiens, UniProt P41597); format: cell membranes, CHO-K1, Membrane; conditions: cho-k1; also: in other assays of this panel Not Active means under 50% inhibition at 10 µM
Chain of C-C chemokine receptor type 2 (P41597 whole entry): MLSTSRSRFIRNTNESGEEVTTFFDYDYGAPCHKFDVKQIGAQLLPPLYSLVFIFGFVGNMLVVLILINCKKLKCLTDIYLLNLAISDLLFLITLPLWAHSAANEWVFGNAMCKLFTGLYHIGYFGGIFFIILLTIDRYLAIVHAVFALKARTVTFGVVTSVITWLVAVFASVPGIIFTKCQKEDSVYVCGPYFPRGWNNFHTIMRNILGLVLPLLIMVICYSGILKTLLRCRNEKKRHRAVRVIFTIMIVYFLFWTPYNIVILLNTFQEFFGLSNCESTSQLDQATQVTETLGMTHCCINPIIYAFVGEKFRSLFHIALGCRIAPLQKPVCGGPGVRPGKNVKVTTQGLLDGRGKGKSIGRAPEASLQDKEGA

[6] = biological target: T3, Neuropeptide Y receptor type 2 (Homo sapiens, UniProt P49146); format: cell membranes, Membrane; conditions: kan-ts; also: in other assays of this panel Not Active means under 50% inhibition at 10 µM
T3 sequence (P49146 whole entry): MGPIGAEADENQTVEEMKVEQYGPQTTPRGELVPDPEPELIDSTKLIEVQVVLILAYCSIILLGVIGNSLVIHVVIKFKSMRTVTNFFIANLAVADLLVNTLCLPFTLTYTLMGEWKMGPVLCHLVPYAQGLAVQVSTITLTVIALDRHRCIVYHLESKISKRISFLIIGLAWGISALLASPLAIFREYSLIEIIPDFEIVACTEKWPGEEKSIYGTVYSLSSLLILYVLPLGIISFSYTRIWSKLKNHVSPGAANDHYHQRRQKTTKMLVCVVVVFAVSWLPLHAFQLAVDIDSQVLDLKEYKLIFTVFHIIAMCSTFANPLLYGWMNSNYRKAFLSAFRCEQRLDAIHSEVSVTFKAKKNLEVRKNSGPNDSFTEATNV

[7] = biological target: T4, Interstitial collagenase (Homo sapiens, UniProt P03956); experiment: biochemical; format: tissue-based, Rheumatoid synovial fibroblasts;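 also: MMP-1 enzyme inhibition assay using a peptide substrate; in other assays of this panel Not Active means under 50% inhibition at 10 µM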
T4 sequence (P03956 whole entry): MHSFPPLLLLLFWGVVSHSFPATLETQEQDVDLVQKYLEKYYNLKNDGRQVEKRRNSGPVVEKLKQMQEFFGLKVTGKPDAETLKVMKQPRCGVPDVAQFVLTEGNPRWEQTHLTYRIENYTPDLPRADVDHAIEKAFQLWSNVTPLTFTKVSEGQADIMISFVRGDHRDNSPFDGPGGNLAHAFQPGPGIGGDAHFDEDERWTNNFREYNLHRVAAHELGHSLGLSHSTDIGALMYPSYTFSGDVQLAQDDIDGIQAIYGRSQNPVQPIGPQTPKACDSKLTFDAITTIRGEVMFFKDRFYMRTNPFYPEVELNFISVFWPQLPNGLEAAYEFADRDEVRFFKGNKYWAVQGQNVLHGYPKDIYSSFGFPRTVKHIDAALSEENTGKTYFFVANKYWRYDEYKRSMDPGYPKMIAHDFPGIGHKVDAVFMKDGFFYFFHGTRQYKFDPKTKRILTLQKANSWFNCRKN

[8] = biological target: Epidermal growth factor receptor (Homo sapiens, UniProt P00533); experiment: DRUGMATRIX: Protein Tyrosine Kinase, EGF Receptor enzyme inhibition (substrate: Poly(Glu:Tyr)); format: cell-based, Insect cells; conditions: Not Active = under 50% inhibition at 10 µM
Chain of Epidermal growth factor receptor (P00533 whole entry): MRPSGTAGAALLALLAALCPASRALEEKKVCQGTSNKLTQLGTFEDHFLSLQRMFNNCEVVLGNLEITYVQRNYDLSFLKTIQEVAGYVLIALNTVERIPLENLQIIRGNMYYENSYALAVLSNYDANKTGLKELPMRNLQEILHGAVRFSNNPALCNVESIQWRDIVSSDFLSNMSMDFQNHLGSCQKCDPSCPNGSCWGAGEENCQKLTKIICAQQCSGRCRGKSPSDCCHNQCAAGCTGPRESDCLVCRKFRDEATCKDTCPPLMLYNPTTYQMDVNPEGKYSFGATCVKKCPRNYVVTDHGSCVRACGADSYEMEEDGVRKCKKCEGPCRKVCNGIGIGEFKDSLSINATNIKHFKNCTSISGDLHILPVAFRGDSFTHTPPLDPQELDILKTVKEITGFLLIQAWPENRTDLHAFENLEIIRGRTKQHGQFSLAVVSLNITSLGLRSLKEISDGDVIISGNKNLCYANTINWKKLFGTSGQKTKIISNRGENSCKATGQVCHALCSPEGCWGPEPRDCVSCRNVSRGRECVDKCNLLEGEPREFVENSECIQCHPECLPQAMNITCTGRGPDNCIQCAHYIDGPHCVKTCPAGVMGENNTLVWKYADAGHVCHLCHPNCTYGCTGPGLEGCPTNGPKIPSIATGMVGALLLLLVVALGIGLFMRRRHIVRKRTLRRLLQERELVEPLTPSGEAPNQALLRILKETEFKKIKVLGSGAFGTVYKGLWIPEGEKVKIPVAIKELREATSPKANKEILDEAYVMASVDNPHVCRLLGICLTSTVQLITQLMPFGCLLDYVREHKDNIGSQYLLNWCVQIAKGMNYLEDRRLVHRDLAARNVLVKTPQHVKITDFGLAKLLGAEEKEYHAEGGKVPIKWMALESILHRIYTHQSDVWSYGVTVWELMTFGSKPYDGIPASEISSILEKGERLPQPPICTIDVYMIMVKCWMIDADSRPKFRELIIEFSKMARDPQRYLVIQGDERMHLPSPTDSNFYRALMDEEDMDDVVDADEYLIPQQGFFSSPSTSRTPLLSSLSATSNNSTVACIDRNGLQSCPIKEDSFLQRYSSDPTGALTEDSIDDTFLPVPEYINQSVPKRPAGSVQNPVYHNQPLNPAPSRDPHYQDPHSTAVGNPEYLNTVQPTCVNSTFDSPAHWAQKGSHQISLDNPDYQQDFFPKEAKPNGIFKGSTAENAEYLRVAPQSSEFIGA

[9] = biological target: T5, 5-hydroxytryptamine receptor 1A (Rattus norvegicus, UniProt P19327); format: cell membranes, Membrane; conditions: cho-k1; also: in other assays of this panel Not Active means under 50% inhibition at 10 µM
T5 sequence (P19327 whole entry): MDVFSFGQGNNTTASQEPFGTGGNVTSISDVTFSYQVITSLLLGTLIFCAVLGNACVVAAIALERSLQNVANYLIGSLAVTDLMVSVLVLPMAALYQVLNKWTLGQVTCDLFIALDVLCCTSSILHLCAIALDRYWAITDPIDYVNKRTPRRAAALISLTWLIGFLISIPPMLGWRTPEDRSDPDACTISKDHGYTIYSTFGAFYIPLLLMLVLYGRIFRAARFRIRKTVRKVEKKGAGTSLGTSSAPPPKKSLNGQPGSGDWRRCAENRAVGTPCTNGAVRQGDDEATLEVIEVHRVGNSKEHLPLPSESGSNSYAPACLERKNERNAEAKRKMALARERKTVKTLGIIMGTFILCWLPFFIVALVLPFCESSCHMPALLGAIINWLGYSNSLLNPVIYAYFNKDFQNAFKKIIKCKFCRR

[10] = biological target: Acetylcholinesterase (Homo sapiens, UniProt P22303); experiment: DRUGMATRIX: Acetylcholinesterase enzyme inhibition (substrate: acetylthiocholine); format: cell-based, HEK293; conditions: Not Active = under 50% inhibition at 10 µM
Chain of Acetylcholinesterase (P22303 whole entry): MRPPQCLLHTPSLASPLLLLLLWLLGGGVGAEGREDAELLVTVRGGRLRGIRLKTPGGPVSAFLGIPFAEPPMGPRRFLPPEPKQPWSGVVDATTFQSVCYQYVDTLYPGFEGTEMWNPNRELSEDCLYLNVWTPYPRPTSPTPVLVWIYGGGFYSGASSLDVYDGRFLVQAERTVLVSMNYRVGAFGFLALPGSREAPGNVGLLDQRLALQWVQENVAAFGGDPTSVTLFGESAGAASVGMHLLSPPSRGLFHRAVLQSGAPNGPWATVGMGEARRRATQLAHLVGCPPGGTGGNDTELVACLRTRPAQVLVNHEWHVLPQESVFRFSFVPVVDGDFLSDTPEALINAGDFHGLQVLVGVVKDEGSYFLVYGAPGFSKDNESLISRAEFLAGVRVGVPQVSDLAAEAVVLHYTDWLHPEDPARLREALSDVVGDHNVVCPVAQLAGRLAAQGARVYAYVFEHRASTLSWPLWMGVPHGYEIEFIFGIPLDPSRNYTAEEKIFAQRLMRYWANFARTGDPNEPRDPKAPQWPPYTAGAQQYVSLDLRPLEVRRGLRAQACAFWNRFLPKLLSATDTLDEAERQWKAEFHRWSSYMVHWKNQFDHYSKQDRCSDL

Compound	IC50 [1]	IC50 ([2]; hek293)	IC50 ([3]; mdck)	IC50 [4]	Ki [4]	IC50 [5]	IC50 [6]	IC50 [7]	IC50 ([8]; insect cells)	IC50 [9]	IC50 ([10]; hek293)	IC50 ([2]; read-out: IC50)	Ki [2]	IC50 ([10]; read-out: IC50)	IC50 ([1]; read-out: IC50)	Ki [1]	IC50 ([3]; read-out: IC50)	Ki ([3]; read-out: Ki)	IC50 ([8]; read-out: IC50)
CC1=C(CC(=O)O)c2cc(F)ccc2/C1=C\c1ccc([S+](C)[O-])cc1 (stereo unspecified)	Not Active	Not Active	Not Active	Not Active	Not Active	Not Active	Not Active	Not Active	Not Active	Not Active	Not Active	–	–	–	–	–	–	–	–
N[C@H](CSC(=S)NCc1ccccc1)C(=O)O	Not Active	Not Active	Not Active	Not Active	Not Active	Not Active	Not Active	Not Active	Not Active	Not Active	Not Active	–	–	–	–	–	–	–	–
CC(=O)N[C@@H]1[C@H](Oc2c3cc4cc2Oc2ccc(cc2Cl)[C@@H](O[C@@H]2O[C@@H](CO)[C@@H](O)[C@H](O)[C@@H]2NC(C)=O)[C@@H]2NC(=O)[C@H](NC(=O)[C@@H]4NC(=O)[C@H]4NC(=O)[C@@H](Cc5ccc(c(Cl)c5)O3)NC(=O)[C@H](N)c3ccc(O)c(c3)Oc3cc(O)cc4c3)c3ccc(O)c(c3)-c3c(O[C@H]4O[C@H](CO)[C@@H](O)[C@@H](O)[C@@H]4O)cc(O)cc3[C@@H](C(=O)O)NC2=O)O[C@@H](CO)[C@@H](O)[C@@H]1O	Not Active	Not Active	Not Active	Not Active	Not Active	Not Active	Not Active	Not Active	Not Active	Not Active	Not Active	–	–	–	–	–	–	–	–
Clc1ccc2c(c1)C(N1CCNCC1)=Nc1ccccc1O2 [AMOXAPINE]	–	–	–	–	–	Not Active	Not Active	Not Active	Not Active	Not Active	Not Active	306 nM	150 nM	–	–	–	–	–	–
COc1cc2c(c(OC)c1OC)-c1ccc(OC)c(=O)cc1[C@@H](NC(C)=O)CC2 [COLCHICINE]	–	Not Active	Not Active	–	–	Not Active	Not Active	Not Active	Not Active	Not Active	Not Active	–	–	–	–	–	–	–	–
CN1CCC(=C2c3ccccc3C=Cc3ccccc32)CC1 [CYPROHEPTADINE]	–	–	–	–	–	Not Active	Not Active	Not Active	Not Active	–	Not Active	107 nM	53 nM	–	–	–	–	–	–
CC/C(=C(/CC)c1ccc(O)cc1)c1ccc(O)cc1 [DIETHYLSTILBESTROL]	–	–	–	–	–	Not Active	Not Active	Not Active	Not Active	Not Active	–	10800 nM	5320 nM	25600 nM	–	–	–	–	–
CC(=O)N1CCN(c2ccc(OCC3COC(Cn4ccnc4)(c4ccc(Cl)cc4Cl)O3)cc2)CC1 (stereo unspecified) [KETOCONAZOLE]	–	Not Active	–	Not Active	Not Active	Not Active	Not Active	Not Active	Not Active	Not Active	Not Active	–	–	–	22900 nM	12700 nM	24200 nM	24000 nM	–
C=CCN1CC[C@]23c4c5ccc(O)c4O[C@H]2C(=O)CC[C@@]3(O)[C@H]1C5 [NALOXONE]	–	Not Active	Not Active	–	–	Not Active	Not Active	Not Active	Not Active	Not Active	Not Active	–	–	–	–	–	–	–	–
COCCOC(=O)C1=C(C)NC(C)=C(C(=O)OC(C)C)C1c1cccc([N+](=O)[O-])c1 (stereo unspecified) [NIMODIPINE]	Not Active	Not Active	Not Active	Not Active	Not Active	Not Active	Not Active	Not Active	Not Active	Not Active	Not Active	–	–	–	–	–	–	–	–
CC(C)NCC(O)COc1cccc2ccccc12 (stereo unspecified) [PROPRANOLOL]	–	Not Active	–	–	–	Not Active	Not Active	Not Active	Not Active	–	Not Active	–	–	–	–	–	–	–	–
COCCCOc1ccnc(C[S+]([O-])c2nc3ccccc3[nH]2)c1C (stereo unspecified) [RABEPRAZOLE]	Not Active	Not Active	Not Active	Not Active	Not Active	Not Active	Not Active	Not Active	Not Active	Not Active	Not Active	–	–	–	–	–	–	–	–
O=C(c1ccc(OCCN2CCCCC2)cc1)c1c(-c2ccc(O)cc2)sc2cc(O)ccc12 [RALOXIFENE]	–	–	–	Not Active	Not Active	Not Active	Not Active	Not Active	Not Active	Not Active	–	973 nM	478 nM	400 nM	2690 nM	1490 nM	–	–	–
CC(C)CC(N(C)C)C1(c2ccc(Cl)cc2)CCC1 (stereo unspecified) [SIBUTRAMINE]	Not Active	Not Active	–	Not Active	Not Active	Not Active	Not Active	Not Active	Not Active	Not Active	Not Active	–	–	–	–	–	–	–	–
CC(C)(C)c1ccc(C(O)CCCN2CCC(C(O)(c3ccccc3)c3ccccc3)CC2)cc1 (stereo unspecified) [TERFENADINE]	–	Not Active	–	Not Active	Not Active	Not Active	Not Active	Not Active	–	Not Active	Not Active	–	–	–	3340 nM	1850 nM	–	–	3570 nM
C[C@@H](N)[C@H]1CC[C@H](C(=O)Nc2ccncc2)CC1 [Y-27632]	Not Active	Not Active	Not Active	Not Active	Not Active	Not Active	Not Active	Not Active	–	Not Active	Not Active	–	–	–	–	–	–	–	–

Reference: ChEMBL document CHEMBL1909046, “DrugMatrix in vitro pharmacology data”
